From US9631196B2, “Genetic manipulation and expression systems for Pucciniomycotina and Ustilaginomycotina subphyla” (priority 2011, dated 2017)
Read-outs that look alike come from different tables or passages of the source.

Legend:
U. maydis L8 and SG200 = type: cell-based, Ustilago maydis; details: for cyp1Δ (%) gene knockout frequency / prf1 Δ (%) gene knockout frequency: co-culture 2 days
Excerpt: (§1) cyp1 (um11812) and ptf1 (um02713) genes were chosen for the comparison of gene-targeting frequency, which can be monitored by the loss of ustilagic acids (UA) production and the loss of Fuz^+ colonies, respectively. Gene deletion constructs, pKOcyp1 and pKOprf1, were made by one-step ligation of four fragments. pKOcyp1 is composed of the 2.0-kb HindIII-PacI fragment containing the Pgpd::hpt cassette, the 8.7 kb NcoI-KpnI fragment from pEX2tk, the 1405 bp NcoI-HindIII and the 1076 bp PacI-KpnI PCR product derived from the upstream and downstream regions of the cyp1 ORF. The oligo pairs Cyp1L-Nf/Cyp1L-Hr (SEQ ID NO:29/SEQ ID NO:30) and Cyp1R-Pf/Cyp1R-Kr (SEQ ID NO:31/SEQ ID NO:32) were used for the amplification of upstream and downstream region, respectively. pKOprf1 was made similarly except the PCR product of oligo pairs Prf1L-Nf/Prf1L-Hr (SEQ ID NO:33/SEQ ID NO:34) and Prf1R-Pf/Prf1R-Kr (SEQ ID NO:35/SEQ ID NO:36) were used as the upstream and downstream homology region, respectively. Correct strains were identified by colony PCR using Taq DNA polymerase based on the size of the expected constructs using oligos LB/Cyp1L-Nf (SEQ ID NO:37/SEQ ID NO:29) and LB/Prf1L-Nf (SEQ ID NO:37/SEQ ID NO:33) for cyp1Δ and prf1Δ respectively. The same construction and identification techniques were applied to generate other gene deletion mutants in this study.
Similar results were obtained when knockout was performed via the ATMT transformation (Table 9).

U maydis spheroplasts = type: cell-based, Ustilago maydis
Excerpt: as §1
PEG-mediated transformation of U maydis spheroplasts were done as described previously (Kämper, 2004). Briefly, the 4.5 kb cyp1 and prf1 gene deletion cassettes were amplified from pKOcyp1 and pKOprf1 using the Expand Long System (Roche Diagnosis, USA) and oligos Cyp1L-Nf/Cyp1R-Kr (SEQ ID NO:29/SEQ ID NO:32) and Prf1L-Nf/Prf1R-Kr (SEQ ID NO:33/SEQ ID NO:36), respectively. The PCR products were gel purified (Qiagen, Germany) and used for transformation. […]

[1] = NU7026 1 μM in top and bottom regeneration media, 3 days, out of 288 transformants

O=c1cc(N2CCOCC2)oc2c1ccc1ccccc12 [NU7026, 2-(morpholin-4-yl)-benzo[h]chomen-4-one; 2-(4-morpholinyl)-4H-naphthol[1,2-b]pyran-4-one]
cyp1Δ (%) gene knockout frequency (U. maydis L8 and SG200; NU7026 0.1 μM): 8.3%
prf1 Δ (%) gene knockout frequency (U. maydis L8 and SG200; NU7026 0.1 μM): 11.4%
cyp1Δ (%) gene knockout frequency (U. maydis L8 and SG200; NU7026 1 μM): 18.8%
prf1 Δ (%) gene knockout frequency (U. maydis L8 and SG200; NU7026 1 μM): 25.1%
cyp1Δ (%) gene knockout frequency (U. maydis L8 and SG200; NU7026 5 μM): 10.4%
prf1 Δ (%) gene knockout frequency (U. maydis L8 and SG200; NU7026 5 μM): 12.7%
cyp1Δ (%) gene knockout frequency (U. maydis L8 and SG200; NU7026 10 μM): 8.3%
prf1 Δ (%) gene knockout frequency (U. maydis L8 and SG200; NU7026 10 μM): 8.7%
cyp1Δ (%) gene knockout frequency (U. maydis L8 and SG200; NU7026 50 μM): 7.4%
prf1 Δ (%) gene knockout frequency (U. maydis L8 and SG200; NU7026 50 μM): 8.5%
total number of transformants obtained in 5 transformation plates (U. maydis L8 and SG200; cyp1Δ, NU7026 0.1 μM): 601
total number of transformants obtained in 5 transformation plates (U. maydis L8 and SG200; cyp1Δ, NU7026 1 μM): 496
total number of transformants obtained in 5 transformation plates (U. maydis L8 and SG200; cyp1Δ, NU7026 5 μM): 413
total number of transformants obtained in 5 transformation plates (U. maydis L8 and SG200; cyp1Δ, NU7026 10 μM): 96
total number of transformants obtained in 5 transformation plates (U. maydis L8 and SG200; cyp1Δ, NU7026 50 μM): 68
total number of transformants obtained in 5 transformation plates (U. maydis L8 and SG200; prf1Δ, NU7026 0.1 μM): 642
total number of transformants obtained in 5 transformation plates (U. maydis L8 and SG200; prf1Δ, NU7026 1 μM): 554
total number of transformants obtained in 5 transformation plates (U. maydis L8 and SG200; prf1Δ, NU7026 5 μM): 361
total number of transformants obtained in 5 transformation plates (U. maydis L8 and SG200; prf1Δ, NU7026 10 μM): 172
total number of transformants obtained in 5 transformation plates (U. maydis L8 and SG200; prf1Δ, NU7026 50 μM): 59
cyp1Δ gene knockout frequency (U maydis spheroplasts; [1]): 16.67%
prf1Δ gene knockout frequency (U maydis spheroplasts; [1]): 26.39%
increase of gene knockout frequency (U maydis spheroplasts; both cyp1 and prf1, NU7026 1 μM vs control): about 3 folds
